Test [1] addresses T1, Glucocorticoid receptor (Homo sapiens, UniProt P04150).
T1 sequence (P04150 whole entry): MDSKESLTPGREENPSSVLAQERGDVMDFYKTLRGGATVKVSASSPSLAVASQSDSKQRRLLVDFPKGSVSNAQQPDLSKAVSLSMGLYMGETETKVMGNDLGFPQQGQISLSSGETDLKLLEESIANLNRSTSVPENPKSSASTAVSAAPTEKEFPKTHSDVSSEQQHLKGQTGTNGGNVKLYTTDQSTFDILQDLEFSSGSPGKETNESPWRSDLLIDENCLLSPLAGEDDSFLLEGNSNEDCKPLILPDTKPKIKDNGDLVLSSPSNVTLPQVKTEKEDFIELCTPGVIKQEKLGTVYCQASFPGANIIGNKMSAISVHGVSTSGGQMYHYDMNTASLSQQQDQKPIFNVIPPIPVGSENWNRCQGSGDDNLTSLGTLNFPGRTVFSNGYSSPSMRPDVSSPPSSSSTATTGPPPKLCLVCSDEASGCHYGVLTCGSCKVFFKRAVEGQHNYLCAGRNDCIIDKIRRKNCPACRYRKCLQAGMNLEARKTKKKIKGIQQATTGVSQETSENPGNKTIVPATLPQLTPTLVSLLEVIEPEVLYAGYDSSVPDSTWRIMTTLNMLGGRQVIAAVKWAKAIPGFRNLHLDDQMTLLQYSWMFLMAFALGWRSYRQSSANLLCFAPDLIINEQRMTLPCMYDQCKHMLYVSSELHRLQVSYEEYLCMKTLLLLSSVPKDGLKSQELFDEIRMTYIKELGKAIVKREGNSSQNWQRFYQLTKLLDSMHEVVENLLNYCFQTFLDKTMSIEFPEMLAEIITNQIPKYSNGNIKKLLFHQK
The test can be described thus: Repression activity of GR ligand with interleukin-6 receptor in native cell assay using Dexamethasone was determined as maximal potency. Type of test: functional.

The target of test [2] is T1, Glucocorticoid receptor. The test can be described thus: Transcriptional activation in CV-1 cells expressing glucocorticoid receptor. It counts as functional, cell-based.
The target of test [3] is T1, Glucocorticoid receptor. Nature of the test: Glucocorticoid-induced aromatase activity in human skin fibroblasts. Type of test: functional.
The target of test [4] is T1, Glucocorticoid receptor. Nature of the test: Transcriptional repression activity in HEP G2 cells expressing glucocorticoid receptor compared to Dexamethasone. Type of test: functional, cell-based, HepG2.
A further test has as its target T2, Progesterone receptor (Homo sapiens, UniProt P06401).
T2 sequence (P06401 whole entry): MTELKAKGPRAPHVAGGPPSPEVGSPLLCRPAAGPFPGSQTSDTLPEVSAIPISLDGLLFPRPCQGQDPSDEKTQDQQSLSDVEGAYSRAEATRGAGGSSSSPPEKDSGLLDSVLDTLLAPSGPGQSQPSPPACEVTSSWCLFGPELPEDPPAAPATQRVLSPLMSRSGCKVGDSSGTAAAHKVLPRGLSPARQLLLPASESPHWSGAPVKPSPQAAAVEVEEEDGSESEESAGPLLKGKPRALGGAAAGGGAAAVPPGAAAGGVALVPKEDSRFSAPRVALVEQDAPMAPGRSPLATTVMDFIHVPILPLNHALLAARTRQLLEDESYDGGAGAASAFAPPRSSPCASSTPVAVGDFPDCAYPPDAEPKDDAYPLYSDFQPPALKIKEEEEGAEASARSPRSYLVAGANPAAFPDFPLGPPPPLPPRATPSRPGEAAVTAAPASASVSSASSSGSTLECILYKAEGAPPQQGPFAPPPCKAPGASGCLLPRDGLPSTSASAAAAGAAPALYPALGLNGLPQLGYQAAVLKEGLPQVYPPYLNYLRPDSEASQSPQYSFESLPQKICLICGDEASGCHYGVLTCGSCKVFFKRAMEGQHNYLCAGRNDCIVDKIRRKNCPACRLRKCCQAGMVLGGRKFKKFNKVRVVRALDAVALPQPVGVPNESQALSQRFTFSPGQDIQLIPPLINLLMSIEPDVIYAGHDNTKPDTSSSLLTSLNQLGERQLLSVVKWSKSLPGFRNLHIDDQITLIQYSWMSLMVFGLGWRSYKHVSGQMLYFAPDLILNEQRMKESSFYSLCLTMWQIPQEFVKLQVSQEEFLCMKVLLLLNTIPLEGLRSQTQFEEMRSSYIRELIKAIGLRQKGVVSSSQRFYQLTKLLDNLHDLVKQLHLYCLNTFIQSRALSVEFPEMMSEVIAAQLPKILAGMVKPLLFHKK
The test can be described thus: Binding affinity for progesterone receptor.

The target of test [5] is T1, Glucocorticoid receptor. Nature of the test: Transcriptional repression of IL-1 stimulated IL-6 expression in native cells compared to Dexamethasone. Type of test: functional, cell-based.
Test [6] concerns the target T1, Glucocorticoid receptor. The test can be described thus: Binding affinity for glucocorticoid receptor.
For a further test, the target named is Estrogen receptor (Homo sapiens, UniProt Q92731+P03372). Nature of the test: Binding affinity for estrogen receptor. Type of test: protein assay.
For test [7], the target named is T3, Mineralocorticoid receptor (Homo sapiens, UniProt P08235).
T3 sequence (P08235 whole entry): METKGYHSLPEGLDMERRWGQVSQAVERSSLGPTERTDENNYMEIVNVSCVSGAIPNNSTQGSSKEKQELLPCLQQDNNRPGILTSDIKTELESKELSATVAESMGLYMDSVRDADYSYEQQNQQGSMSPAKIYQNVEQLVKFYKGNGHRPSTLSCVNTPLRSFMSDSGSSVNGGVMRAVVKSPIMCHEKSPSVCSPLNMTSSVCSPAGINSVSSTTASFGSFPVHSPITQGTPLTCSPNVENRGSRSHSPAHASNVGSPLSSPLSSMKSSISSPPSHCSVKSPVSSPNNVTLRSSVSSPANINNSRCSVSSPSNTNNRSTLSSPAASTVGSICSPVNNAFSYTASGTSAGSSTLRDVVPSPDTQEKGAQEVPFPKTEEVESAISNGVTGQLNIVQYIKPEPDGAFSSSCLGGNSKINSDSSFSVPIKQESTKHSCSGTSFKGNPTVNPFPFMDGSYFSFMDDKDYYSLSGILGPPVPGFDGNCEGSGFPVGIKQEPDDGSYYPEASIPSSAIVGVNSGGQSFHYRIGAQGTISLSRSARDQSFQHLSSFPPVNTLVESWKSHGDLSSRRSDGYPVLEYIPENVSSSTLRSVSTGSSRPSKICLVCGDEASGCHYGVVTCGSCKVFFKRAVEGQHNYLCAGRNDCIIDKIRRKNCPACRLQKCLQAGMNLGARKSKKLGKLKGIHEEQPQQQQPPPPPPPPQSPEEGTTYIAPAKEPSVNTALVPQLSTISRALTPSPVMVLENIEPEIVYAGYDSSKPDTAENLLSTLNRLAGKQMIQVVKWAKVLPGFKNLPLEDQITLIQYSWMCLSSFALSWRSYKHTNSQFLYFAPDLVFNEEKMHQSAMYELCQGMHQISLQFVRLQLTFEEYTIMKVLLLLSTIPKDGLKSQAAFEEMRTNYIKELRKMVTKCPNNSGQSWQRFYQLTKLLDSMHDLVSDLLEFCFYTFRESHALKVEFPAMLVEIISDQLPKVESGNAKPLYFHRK
Nature of the test: Binding affinity for mineralocorticoid receptor.

In the next test the target is T4, Androgen receptor (Homo sapiens, UniProt P10275).
T4 sequence (P10275 whole entry): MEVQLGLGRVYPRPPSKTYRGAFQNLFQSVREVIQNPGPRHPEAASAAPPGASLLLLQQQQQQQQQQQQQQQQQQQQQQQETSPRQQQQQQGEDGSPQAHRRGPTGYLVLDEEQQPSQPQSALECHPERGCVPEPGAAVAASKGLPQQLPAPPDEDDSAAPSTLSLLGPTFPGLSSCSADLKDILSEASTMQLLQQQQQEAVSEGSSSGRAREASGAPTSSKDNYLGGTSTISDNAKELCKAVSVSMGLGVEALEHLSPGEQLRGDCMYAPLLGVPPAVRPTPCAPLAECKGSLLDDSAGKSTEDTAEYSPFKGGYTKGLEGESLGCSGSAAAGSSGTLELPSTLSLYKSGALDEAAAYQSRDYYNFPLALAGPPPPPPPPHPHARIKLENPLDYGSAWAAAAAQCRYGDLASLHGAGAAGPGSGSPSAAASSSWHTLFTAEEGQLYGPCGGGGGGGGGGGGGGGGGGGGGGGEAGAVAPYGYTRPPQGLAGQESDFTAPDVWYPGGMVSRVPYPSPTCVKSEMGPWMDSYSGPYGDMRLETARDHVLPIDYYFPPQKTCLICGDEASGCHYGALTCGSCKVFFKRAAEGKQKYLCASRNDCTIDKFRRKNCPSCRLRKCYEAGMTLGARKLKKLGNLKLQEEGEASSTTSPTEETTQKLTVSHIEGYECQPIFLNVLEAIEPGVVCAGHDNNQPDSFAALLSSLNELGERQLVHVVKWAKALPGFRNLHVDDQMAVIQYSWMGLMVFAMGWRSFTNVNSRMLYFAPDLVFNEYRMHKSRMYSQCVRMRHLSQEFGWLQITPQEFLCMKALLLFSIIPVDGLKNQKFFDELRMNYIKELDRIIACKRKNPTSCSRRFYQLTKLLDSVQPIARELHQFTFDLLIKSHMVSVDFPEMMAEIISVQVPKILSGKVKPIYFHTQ
The test can be described thus: Binding affinity for androgen receptor.

The target in test [8] is T1, Glucocorticoid receptor. Nature of the test: Displacement of [3H]- Dexamethasone from glucocorticoid receptor.
A further test is filed under the species Rattus norvegicus. Nature of the test: Anti-asthmatic effect as eosinophil influx in rat lung model. Type of test: functional.

Consider 16 molecules from ChEMBL document CHEMBL1134574, “Synthesis and characterization of non-steroidal ligands for the glucocorticoid receptor: selective quinoline derivatives with prednisolone-equivalent functional activity” (J Med Chem, 2001).

For `COc1cccc2c1-c1ccc3c(c1C(c1cc(C)cc(C)c1)O2)C(C)=CC(C)(C)N3` (stereo unspecified), the IC50 on Glucocorticoid receptor [1] is 0.0092 µM; on Glucocorticoid receptor [2], 0.024 µM; at Glucocorticoid receptor [3] it was 0.146 µM; on Glucocorticoid receptor [4], 0.018 µM.

Consider `COc1cccc2c1-c1ccc3c(c1C(c1cc(C)cc(Br)c1)O2)C(C)=CC(C)(C)N3` (stereo unspecified), for which the IC50 on Glucocorticoid receptor [1] was determined as 0.012 µM; against Glucocorticoid receptor [2], 0.029 µM; against Glucocorticoid receptor [3] it was 0.314 µM; at Glucocorticoid receptor [4] it was 0.018 µM.

The molecule `COc1cccc2c1-c1ccc3c(c1C(c1cc(Cl)cc(Cl)c1)O2)C(C)=CC(C)(C)N3` (stereo in doubt; 17) had a Ki on Progesterone receptor of more than 5 µM.

In turn, `COc1cccc2c1-c1ccc3c(c1C(c1ccccc1)O2)C(C)=CC(C)(C)N3` (single isomer, unassigned; (-)) registered an IC50 against Glucocorticoid receptor [5] of 0.03 µM. Further, the Ki on Glucocorticoid receptor [6] was 0.0021 µM; at Progesterone receptor, more than 5 µM.

In the case of `COc1ccc2c(c1)-c1ccc3c(c1C(c1ccccc1)O2)C(C)=CC(C)(C)N3` (stereo unspecified), the Ki at Glucocorticoid receptor [6] was 0.018 µM; on Progesterone receptor, 0.39 µM.

As for `CC1=CC(C)(C)Nc2ccc3c(c21)C(c1ccccc1)Oc1ccc(Cl)cc1-3` (stereo unspecified), the Ki on Estrogen receptor was more than 1 µM; in [7] it was 1.1 µM; on Androgen receptor, 1.4 µM; on Glucocorticoid receptor [6] it was 0.0093 µM; at Progesterone receptor it was 0.053 µM.

For `COCOc1cccc(C2Oc3cccc(OC)c3-c3ccc4c(c32)C(C)=CC(C)(C)N4)c1` (stereo unspecified), the IC50 amounted to 0.049 µM at Glucocorticoid receptor [1], 0.028 µM at Glucocorticoid receptor [2], 0.131 µM on Glucocorticoid receptor [3] and 0.023 µM on Glucocorticoid receptor [4].

On to `COc1ccc2c(c1)OC(c1ccccc1)c1c-2ccc2c1C(C)=CC(C)(C)N2` (stereo unspecified), for which the Ki is 1.8 µM at Glucocorticoid receptor [6] and more than 5 µM at Progesterone receptor.

On to `COc1cccc2c1-c1ccc3c(c1C(c1cccc(OC(=O)N(C)C)c1)O2)C(C)=CC(C)(C)N3` (stereo unspecified), for which the Ki at Estrogen receptor was more than 1 µM; in [7], 3.91 µM; at Androgen receptor, 3.07 µM; at Progesterone receptor, more than 5 µM; at Glucocorticoid receptor [8] it was 0.0024 µM. Also, the IC50 at Glucocorticoid receptor [1] is 0.026 µM; at Glucocorticoid receptor [2], 0.012 µM; on Glucocorticoid receptor [3], 0.216 µM; at Glucocorticoid receptor [4], 0.006 µM.

On to `COc1cccc2c1-c1ccc3c(c1C(c1cc(Cl)cc(Cl)c1)O2)C(C)=CC(C)(C)N3` (stereo in doubt; (-)22), for which the Ki on Progesterone receptor stood at 1.56 µM.

As for `COc1cccc2c1-c1ccc3c(c1C(c1cc(F)cc(F)c1)O2)C(C)=CC(C)(C)N3` (stereo unspecified), the IC50 against Glucocorticoid receptor [1] was determined as 0.011 µM; against Glucocorticoid receptor [2], 0.01 µM; at Glucocorticoid receptor [3] it was 0.056 µM; against Glucocorticoid receptor [4], 0.009 µM.

For `COc1cccc2c1-c1ccc3c(c1C(c1cccc(C(F)(F)F)c1)O2)C(C)=CC(C)(C)N3` (stereo unspecified), the Ki is more than 1 µM on Estrogen receptor, 0.493 µM in test [7], 3.36 µM on Androgen receptor and 0.011 µM on Glucocorticoid receptor [6]. Also, the IC50 at Glucocorticoid receptor [1] turned out to be 0.032 µM; at Glucocorticoid receptor [2], 0.044 µM; on Glucocorticoid receptor [3], 0.105 µM; on Glucocorticoid receptor [4] it was 0.057 µM.

As to `COc1cccc2c1-c1ccc3c(c1C(c1cc(Cl)cc(Cl)c1)O2)C(C)=CC(C)(C)N3` (single isomer, unassigned; (+)), the Ki (in test [7]; on Androgen receptor; at Progesterone receptor) was more than 5 µM in each case.

For `C[C@]12C=CC(=O)C=C1CC[C@@H]1[C@@H]2[C@@H](O)C[C@@]2(C)[C@H]1CC[C@]2(O)C(=O)CO` [PREDNISOLONE], the Ki at Estrogen receptor was more than 1 µM; in test [7] it was 0.037 µM. In the test filed under Rattus norvegicus, the ED50 was determined as 1.2 mg/kg.

For the molecule `COc1cccc2c1-c1ccc3c(c1C(c1ccccc1)O2)C(C)=CC(C)(C)N3` (stereo in doubt; 10), the Ki on Estrogen receptor is more than 1 µM; in test [7] it was 1.68 µM; at Androgen receptor it was 2.66 µM; at Glucocorticoid receptor [6], 0.0047 µM; on Progesterone receptor it was more than 5 µM. Further, the IC50 stood at 0.051 µM at Glucocorticoid receptor [1], 0.3 µM against Glucocorticoid receptor [2], 0.164 µM at Glucocorticoid receptor [3] and 0.123 µM against Glucocorticoid receptor [4].

Take `COc1cccc2c1-c1ccc3c(c1C(c1ccccc1)O2)C(C)=CC(C)(C)N3` (stereo in doubt; (+)19): the Ki is more than 5 µM in [7], more than 5 µM at Androgen receptor, 0.24 µM at Glucocorticoid receptor [6] and more than 5 µM at Progesterone receptor.
